Experimental data reported in patent US12187723B2 (BRISTOL-MYERS SQUIBB COMPANY, priority 2019, dated 2025).

These molecules were tested against T1, human TLR8 (Homo sapiens, UniProt Q9NR97) (assay: TLR8 inhibition reporter assay (HEK-Blue SEAP)). Details: HEK-Blue cells overexpressing human TLR8, R848 15.9 μM, 22 hour incubation.
T1 construct: host or cells: HEK-Blue cells
T1 sequence (Q9NR97 27-1041): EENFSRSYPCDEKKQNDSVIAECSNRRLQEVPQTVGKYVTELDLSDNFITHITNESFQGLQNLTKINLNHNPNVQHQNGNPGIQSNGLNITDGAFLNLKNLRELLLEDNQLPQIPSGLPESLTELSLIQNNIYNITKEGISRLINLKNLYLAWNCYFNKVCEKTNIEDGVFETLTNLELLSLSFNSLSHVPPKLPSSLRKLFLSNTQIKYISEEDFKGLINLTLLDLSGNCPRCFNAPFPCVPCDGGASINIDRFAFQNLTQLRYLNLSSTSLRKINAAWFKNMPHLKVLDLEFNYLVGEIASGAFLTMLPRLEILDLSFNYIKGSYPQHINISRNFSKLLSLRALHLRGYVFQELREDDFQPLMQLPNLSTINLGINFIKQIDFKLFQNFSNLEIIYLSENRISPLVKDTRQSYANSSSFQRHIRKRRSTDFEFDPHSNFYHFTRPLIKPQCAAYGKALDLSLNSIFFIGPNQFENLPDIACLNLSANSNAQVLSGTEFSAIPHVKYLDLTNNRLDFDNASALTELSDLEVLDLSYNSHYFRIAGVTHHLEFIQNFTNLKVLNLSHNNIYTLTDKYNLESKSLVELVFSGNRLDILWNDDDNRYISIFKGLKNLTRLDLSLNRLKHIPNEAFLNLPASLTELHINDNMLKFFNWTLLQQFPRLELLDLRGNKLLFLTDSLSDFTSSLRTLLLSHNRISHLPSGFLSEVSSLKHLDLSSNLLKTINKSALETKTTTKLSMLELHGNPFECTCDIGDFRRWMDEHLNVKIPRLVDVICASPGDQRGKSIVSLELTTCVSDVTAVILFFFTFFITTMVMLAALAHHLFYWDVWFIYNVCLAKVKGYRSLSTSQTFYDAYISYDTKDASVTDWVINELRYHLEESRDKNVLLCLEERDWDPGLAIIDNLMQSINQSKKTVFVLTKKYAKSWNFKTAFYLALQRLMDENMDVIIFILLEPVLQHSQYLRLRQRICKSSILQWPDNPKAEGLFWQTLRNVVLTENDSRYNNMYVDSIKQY
Type: cell-based
Experimental: TLR7/8/9 Inhibition Reporter Assays
HEK-Blue™-cells (Invivogen) overexpressing human TLR7, TLR8 or TLR9 receptors were used for screening inhibitors of these receptors using an inducible SEAP (secreted embryonic alkaline phosphatase) reporter gene under the control of the IFN-β minimal promoter fused to five NF-κB and AP-1-binding sites. Briefly, cells are seeded into Greiner 384 well plates (15000 cells per well for TLR7, 20,000 for TLR8 and 25,000 for TLR9) and then treated with test compounds in DMSO to yield a final dose response concentration range of 0.05 nM-50 μM. After a 30 minute compound pre-treatment at room temperature, the cells are then stimulated with a TLR7 ligand (gardiquimod at a final concentration of 7.5 μM), TLR8 ligand (R848 at a final concentration of 15.9 μM) or TLR9 ligand (ODN2006 at a final concentration of 5 nM) to activate NF-κB and AP-1 which induce the production of SEAP. After a 22 hour incubation at 37° C., 5% CO2, SEAP levels are determined with the addition of HEK-Blue™ Detection reagent (Invivogen), a cell culture medium that allows for detection of SEAP, according to manufacturer's specifications. The percent inhibition is determined as the % reduction in the HEK-Blue signal present in wells treated with agonist plus DMSO alone compared to wells treated with a known inhibitor.

SMILES | IC50 [nM]
COc1cc(-c2cc3[nH]c(=O)n([C@@H]4CCCN(CC5CCOCC5)C4)c3cc2C(F)(F)F)cn2ncnc12 [Example 112, (R)-5-(8-methoxy-[1,2,4]triazolo[1,5-a]pyridin-6-yl)-1-(1-((tetrahydro-2H-pyran-4-yl)methyl)piperidin-3-yl)-6-(trifluoromethyl)-1,3-dihydro-2H-benzo[d]imidazol-2-one] | 20.3
Cc1cc2c(cc1-c1cc(C)c3ncnn3c1)[nH]c(=O)n2[C@@H]1CCCN(CC#N)C1 [Example 96, (R)-2-(3-(6-methyl-5-(8-methyl-[1,2,4]triazolo[1,5-a]pyridin-6-yl)-2-oxo-2,3-dihydro-1H-benzo[d]imidazol-1-yl)piperidin-1-yl)acetonitrile] | 45.3
Cc1cc2c(cc1-c1cc(C)c3ncnn3c1)[nH]c(=O)n2C1CCN(C)CC1 [Example 3, 6-methyl-5-(8-methyl-[1,2,4]triazolo[1,5-a]pyridin-6-yl)-1-(1-methylpiperidin-4-yl)-1,3-dihydro-2H-benzo[d]imidazol-2-one] | 36.8
COc1cc(-c2cc3[nH]c(=O)n([C@H]4CCCN(CC5CCOC5)C4)c3cc2C(C)C)cn2ncnc12 (stereo partly drawn) [Example 126, 6-isopropyl-5-(8-methoxy-[1,2,4]triazolo[1,5-a]pyridin-6-yl)-1-((3S)-1-((tetrahydrofuran-3-yl)methyl)piperidin-3-yl)-1,3-dihydro-2H-benzo[d]imidazol-2-one] | 3.64
COc1cc(-c2cc3[nH]c(=O)n([C@H]4CCCN(C(C)C)C4)c3cc2C(C)C)cn2ncnc12 [Example 120, (S)-6-isopropyl-1-(1-isopropylpiperidin-3-yl)-5-(8-methoxy-[1,2,4]triazolo[1,5-a]pyridin-6-yl)-1,3-dihydro-2H-benzo[d]imidazol-2-one] | 0.8
COc1cc(-c2cc3[nH]c(=O)n([C@@H]4CCCN(CC(C)(C)C)C4)c3cc2C(F)(F)F)cn2ncnc12 [Example 116, (R)-5-(8-methoxy-[1,2,4]triazolo[1,5-a]pyridin-6-yl)-1-(1-neopentylpiperidin-3-yl)-6-(trifluoromethyl)-1,3-dihydro-2H-benzo[d]imidazol-2-one] | 57.8
COc1cc(-c2cc3[nH]c(=O)n([C@H]4CCCN(CC5CC5)C4)c3cc2C(C)C)cn2ncnc12 [Example 127, (S)-1-(1-(cyclopropylmethyl)piperidin-3-yl)-6-isopropyl-5-(8-methoxy-[1,2,4]triazolo[1,5-a]pyridin-6-yl)-1,3-dihydro-2H-benzo[d]imidazol-2-one] | 2.8
COc1cc(-c2cc3[nH]c(=O)n(C4CCN(C(C)C)CC4)c3cc2C)cn2ncnc12 [Example 10, 1-(1-isopropylpiperidin-4-yl)-5-(8-methoxy-[1,2,4]triazolo[1,5-a]pyridin-6-yl)-6-methyl-1,3-dihydro-2H-benzo[d]imidazol-2-one] | 89.7
COc1cc(-c2cc3[nH]c(=O)n(C4CCN(C5COC5)CC4)c3cc2C(C)C)cn2ncnc12 [Example 157, 6-isopropyl-5-(8-methoxy-[1,2,4]triazolo[1,5-a]pyridin-6-yl)-1-(1-(oxetan-3-yl)piperidin-4-yl)-1,3-dihydro-2H-benzo[d]imidazol-2-one] | 5.42
CCCN1CCC[C@@H](n2c(=O)[nH]c3cc(-c4cc(OC)c5ncnn5c4)c(C(F)(F)F)cc32)C1 [Example 115, (R)-5-(8-methoxy-[1,2,4]triazolo[1,5-a]pyridin-6-yl)-1-(1-propylpiperidin-3-yl)-6-(trifluoromethyl)-1,3-dihydro-2H-benzo[d]imidazol-2-one] | 14.4
COc1cc(-c2cc3[nH]c(=O)n([C@@H]4CCCN(C(C)C)C4)c3cc2C(F)(F)F)cn2ncnc12 [Example 111, (R)-1-(1-isopropylpiperidin-3-yl)-5-(8-methoxy-[1,2,4]triazolo[1,5-a]pyridin-6-yl)-6-(trifluoromethyl)-1,3-dihydro-2H-benzo[d]imidazol-2-one] | 12.6
Cc1cc2c(cc1-c1cc(C)c3ncnn3c1)[nH]c(=O)n2[C@@H]1CCCN(CC(=O)N(C)C)C1 [Example 95, (R)—N,N-dimethyl-2-(3-(6-methyl-5-(8-methyl-[1,2,4]triazolo[1,5-a]pyridin-6-yl)-2-oxo-2,3-dihydro-1H-benzo[d]imidazol-1-yl)piperidin-1-yl)acetamide] | 83.4
CCC(CC)CN1CCC[C@@H](n2c(=O)[nH]c3cc(-c4cc(OC)c5ncnn5c4)c(C(F)(F)F)cc32)C1 [Example 117, (R)-1-(1-(2-ethylbutyl)piperidin-3-yl)-5-(8-methoxy-[1,2,4]triazolo[1,5-a]pyridin-6-yl)-6-(trifluoromethyl)-1,3-dihydro-2H-benzo[d]imidazol-2-one] | 33.3
Cc1cc2c(cc1-c1cc(C)c3ncnn3c1)[nH]c(=O)n2[C@H]1CCCN(C(=O)CN(C)C)C1 [Example 103, (S)-1-(1-(dimethylglycyl)piperidin-3-yl)-6-methyl-5-(8-methyl-[1,2,4]triazolo[1,5-a]pyridin-6-yl)-1,3-dihydro-2H-benzo[d]imidazol-2-one] | 205
COCCN1CCC[C@@H](n2c(=O)[nH]c3cc(-c4cc(OC)c5ncnn5c4)c(C)cc32)C1 [Example 98, (R)-5-(8-methoxy-[1,2,4]triazolo[1,5-a]pyridin-6-yl)-1-(1-(2-methoxyethyl)piperidin-3-yl)-6-methyl-1,3-dihydro-2H-benzo[d]imidazol-2-one] | 60.6

Continued, values first:

IC50 [nM] | SMILES
3.24 | COc1cc(-c2cc3[nH]c(=O)n([C@@H]4CCCN(C5CCOCC5)C4)c3cc2C(C)C)cn2ncnc12 [Example 143, (R)-6-isopropyl-5-(8-methoxy-[1,2,4]triazolo[1,5-a]pyridin-6-yl)-1-(1-(tetrahydro-2H-pyran-4-yl)piperidin-3-yl)-1,3-dihydro-2H-benzo[d]imidazol-2-one]
21.7 | CCC(CC)CN1CCC[C@@H](n2c(=O)[nH]c3cc(-c4cn5ncnc5c(C)c4C)c(C(C)C)cc32)C1 [Example 151, (R)-5-(7,8-dimethyl-[1,2,4]triazolo[1,5-a]pyridin-6-yl)-1-(1-(2-ethylbutyl)piperidin-3-yl)-6-isopropyl-1,3-dihydro-2H-benzo[d]imidazol-2-one]
2.27 | COc1cc(-c2cc3[nH]c(=O)n([C@@H]4CCCN(CC(C)(C)C)C4)c3cc2C(C)C)cn2ncnc12 [Example 153, (R)-6-isopropyl-5-(8-methoxy-[1,2,4]triazolo[1,5-a]pyridin-6-yl)-1-(1-neopentylpiperidin-3-yl)-1,3-dihydro-2H-benzo[d]imidazol-2-one]
4.25 | CCCN1CCC[C@@H](n2c(=O)[nH]c3cc(-c4cn5ncnc5c(C)c4C)c(C(C)C)cc32)C1 [Example 150, (R)-5-(7,8-dimethyl-[1,2,4]triazolo[1,5-a]pyridin-6-yl)-6-isopropyl-1-(1-propylpiperidin-3-yl)-1,3-dihydro-2H-benzo[d]imidazol-2-one]
0.54 | CCc1cc2c(cc1-c1cc(OC)c3ncnn3c1)[nH]c(=O)n2[C@H]1CC[C@@H](NC2CCOCC2)CC1 [Example 166, 6-ethyl-5-(8-methoxy-[1,2,4]triazolo[1,5-a]pyridin-6-yl)-1-((1s,4s)-4-((tetrahydro-2H-pyran-4-yl)amino)cyclohexyl)-1,3-dihydro-2H-benzo[d]imidazol-2-one]
9.67 | COc1cc(-c2cc3[nH]c(=O)n(C4CCN(CC(C)C)CC4)c3cc2C(C)C)cn2ncnc12 [Example 164, 1-(1-isobutylpiperidin-4-yl)-6-isopropyl-5-(8-methoxy-[1,2,4]triazolo[1,5-a]pyridin-6-yl)-1,3-dihydro-2H-benzo[d]imidazol-2-one]
9.56 | CCCN1CCC(n2c(=O)[nH]c3cc(-c4cc(OC)c5ncnn5c4)c(C(C)C)cc32)CC1 [Example 155, 6-isopropyl-5-(8-methoxy-[1,2,4]triazolo[1,5-a]pyridin-6-yl)-1-(1-propylpiperidin-4-yl)-1,3-dihydro-2H-benzo[d]imidazol-2-one]
